Results published in ChEMBL document CHEMBL4229332, “Novel multi-target azinesulfonamides of cyclic amine derivatives as potential antipsychotics with pro-social and pro-cognitive effects” (Eur J Med Chem, 2018).

Target: Beta-2 adrenergic receptor (Homo sapiens) (UniProt P07550)
Assay: Displacement of CGP 12177 from human adrenergic beta2 receptor expressed in CHO cells at 10^-6 M after 60 mins by scintillation counting method relative to contro
Assay type: cell-based

Sequence of Beta-2 adrenergic receptor (Homo sapiens) (P07550 whole entry, looked up): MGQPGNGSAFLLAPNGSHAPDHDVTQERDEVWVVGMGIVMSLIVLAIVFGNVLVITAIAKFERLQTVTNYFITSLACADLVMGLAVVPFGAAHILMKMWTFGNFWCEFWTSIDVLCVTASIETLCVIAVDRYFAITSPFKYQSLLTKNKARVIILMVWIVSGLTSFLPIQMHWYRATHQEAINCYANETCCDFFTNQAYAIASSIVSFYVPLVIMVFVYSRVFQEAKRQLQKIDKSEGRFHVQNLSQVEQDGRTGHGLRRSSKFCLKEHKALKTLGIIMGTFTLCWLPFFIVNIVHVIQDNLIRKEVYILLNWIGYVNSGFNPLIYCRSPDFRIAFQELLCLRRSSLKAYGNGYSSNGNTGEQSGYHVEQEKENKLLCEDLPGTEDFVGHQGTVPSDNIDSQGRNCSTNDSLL

**Q.** With `O=S(=O)(c1cncc2ccccc12)N1CCC[C@H]1CCN1CCN(c2cccc3sccc23)CC1` as the compound, how does the inhibition read?
**A.** 25%
